The results in this text go back to US20240208992A1, “MACROCYCLES AS CFTR MODULATORS” (Idorsia Pharmaceuticals Ltd, priority 2021, published 2024).

pEC50: −log10 of the molar value.

The target of this experiment is human F508del-CFTR (Homo sapiens, UniProt P13569, DEL508-508). Nature of the experiment: F508del-CFTR cell surface expression (corrector activity), DiscoveRx ß-galactosidase complementation chemiluminescence assay in recombinant U2OS cell line.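 As to all read-outs here: U2OS cells co-expressing ProLink-tagged F508del-CFTR and a membrane-anchored enzyme acceptor, where more surface CFTR restores β-galactosidase activity measured by chemiluminescence.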 The conditions noted are these: for pEC50: EC50, F508del-CFTR cell surface expression, U2OS cells, 16h compound incubation, geomean values; for Emax: U2OS, in relation to Emax of corrector lumacaftor (=100%), arithmetic mean values.
human F508del-CFTR, sequence (P13569 with tags, fused parts or gaps DEL508-508): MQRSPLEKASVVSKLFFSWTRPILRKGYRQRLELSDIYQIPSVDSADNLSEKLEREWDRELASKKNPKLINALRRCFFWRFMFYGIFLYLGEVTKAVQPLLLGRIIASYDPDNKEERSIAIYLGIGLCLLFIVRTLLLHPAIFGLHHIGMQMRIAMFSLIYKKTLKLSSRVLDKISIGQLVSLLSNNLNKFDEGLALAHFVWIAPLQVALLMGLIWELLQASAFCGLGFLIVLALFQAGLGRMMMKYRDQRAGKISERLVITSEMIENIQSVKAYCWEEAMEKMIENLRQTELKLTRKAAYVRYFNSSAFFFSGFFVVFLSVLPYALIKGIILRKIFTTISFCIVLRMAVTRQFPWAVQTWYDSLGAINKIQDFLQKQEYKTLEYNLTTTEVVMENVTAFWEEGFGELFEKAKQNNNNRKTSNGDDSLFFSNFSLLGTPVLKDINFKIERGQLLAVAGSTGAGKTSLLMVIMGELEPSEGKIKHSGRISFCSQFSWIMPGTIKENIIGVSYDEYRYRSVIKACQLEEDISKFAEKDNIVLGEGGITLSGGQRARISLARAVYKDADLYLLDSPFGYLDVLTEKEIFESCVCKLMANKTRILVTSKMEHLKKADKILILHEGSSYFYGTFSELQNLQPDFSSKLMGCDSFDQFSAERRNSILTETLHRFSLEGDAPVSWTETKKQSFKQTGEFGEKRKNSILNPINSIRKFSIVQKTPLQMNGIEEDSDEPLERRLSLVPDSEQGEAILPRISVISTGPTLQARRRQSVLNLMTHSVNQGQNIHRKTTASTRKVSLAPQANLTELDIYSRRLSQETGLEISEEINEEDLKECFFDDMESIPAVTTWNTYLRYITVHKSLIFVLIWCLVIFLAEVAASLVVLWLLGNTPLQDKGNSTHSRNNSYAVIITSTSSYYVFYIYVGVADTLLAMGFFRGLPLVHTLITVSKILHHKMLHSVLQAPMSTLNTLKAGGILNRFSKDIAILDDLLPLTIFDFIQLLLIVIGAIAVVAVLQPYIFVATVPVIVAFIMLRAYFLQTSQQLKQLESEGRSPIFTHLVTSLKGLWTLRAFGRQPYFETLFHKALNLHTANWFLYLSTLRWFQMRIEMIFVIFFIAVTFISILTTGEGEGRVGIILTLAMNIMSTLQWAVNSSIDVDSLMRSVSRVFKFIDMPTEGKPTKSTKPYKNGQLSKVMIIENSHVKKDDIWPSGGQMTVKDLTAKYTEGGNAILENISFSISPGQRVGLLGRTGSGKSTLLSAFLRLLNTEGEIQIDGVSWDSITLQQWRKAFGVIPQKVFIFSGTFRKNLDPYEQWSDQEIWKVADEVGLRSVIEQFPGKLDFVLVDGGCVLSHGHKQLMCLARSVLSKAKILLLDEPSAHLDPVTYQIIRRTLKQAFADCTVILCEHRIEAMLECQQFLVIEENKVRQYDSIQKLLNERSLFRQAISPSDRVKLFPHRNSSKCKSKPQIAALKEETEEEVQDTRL

Turning to `Cc1cc(CCNC(=O)[C@@H]2CC(=O)N(C)[C@@H](CC(C)C)C(=O)N(C)[C@@H](COCc3ccccc3)C(=O)N[C@H](Cc3ccccc3)COc3ccc4ccccc4c3C(=O)N2)on1` [Example 716, (3S,7S,10S,13R)-13-benzyl-10-((benzyloxy)methyl)-7-isobutyl-6,9-dimethyl-N-(2-(3-methylisoxazol-5-yl)ethyl)-1,5,8,11-tetraoxo-1,2,3,4,5,6,7,8,9,10,11,12,13,14-tetradecahydronaphtho[1,2-p][1]oxa[4,7,10,14]tetraazacycloheptadecine-3-carboxamide], the pEC50 (as a rule, −log10 of the EC50, conventionally taken in molar units) is 6.84 and the Emax (usually the maximal effect, on the per cent scale that the assay sets) worked out at 313%.

Take `Cc1cc(CCNC(=O)[C@@H]2CC(=O)N(C)[C@@H](CC(C)C)C(=O)N(C)[C@H](C3CCCC3)C(=O)N[C@H](Cc3ccccc3)COc3cnc4ccc(F)cc4c3C(=O)N2)on1` [Example 721, (3S,7S,10R,13R)-13-benzyl-10-cyclopentyl-20-fluoro-7-isobutyl-6,9-dimethyl-N-(2-(3-methylisoxazol-5-yl)ethyl)-1,5,8,11-tetraoxo-1,2,3,4,5,6,7,8,9,10,11,12,13,14-tetradecahydro-[1]oxa[4,7,10,14]tetraazacycloheptadecino[17,16-c]quinoline-3-carboxamide]: the pEC50 is 6.85 and the Emax is 328%.

For `Cc1cc(CCNC(=O)[C@@H]2CC(=O)N(C)[C@@H](CC(C)C)C(=O)N(C)[C@H](Cc3ccccc3)C(=O)N[C@H](Cc3ccccc3)COc3cnc4ccc(F)cc4c3C(=O)N2)on1` [Example 722, (3S,7S,10R,13R)-10,13-Dibenzyl-20-fluoro-7-isobutyl-6,9-dimethyl-N-(2-(3-methylisoxazol-5-yl)ethyl)-1,5,8,11-tetraoxo-1,2,3,4,5,6,7,8,9,10,11,12,13,14-tetradecahydro-[1]oxa[4,7,10,14]tetraazacycloheptadecino[17,16-c]quinoline-3-carboxamide], the pEC50 was 7.00 and the maximum response (Emax) was 347%.

In the case of `COc1nccc2c1C(=O)N[C@H](C(=O)NCCc1nc(C3CC3)no1)CC(=O)N(C)[C@@H](CC(C)C)C(=O)N(C)[C@@H](COCc1ccccc1)C(=O)N[C@H](Cc1ccccc1)CO2` [Example 724, (3R,6RS,9S,13S)-3-benzyl-6-((benzyloxy)methyl)-N-(2-(3-cyclopropyl-1,2,4-oxadiazol-5-yl)ethyl)-9-isobutyl-16-methoxy-7,10-dimethyl-5,8,11,15-tetraoxo-2,3,4,5,6,7,8,9,10,11,12,13,14,15-tetradecahydropyrido[3,4-p][1]oxa[4,7,10,14]tetraazacycloheptadecine-13-carboxamide], the pEC50 was 7.03 and the maximal response (Emax) turned out to be 345%.

`Cc1cc(CCNC(=O)[C@@H]2CC(=O)N(C)[C@@H](CC(C)C)C(=O)N3CCNC[C@@H]3C(=O)N[C@H](Cc3ccccc3)COc3ccc4ccccc4c3C(=O)N2)on1` [Example 725, (4aR,7R,18S,22S)-7-Benzyl-22-isobutyl-21-methyl-N-(2-(3-methylisoxazol-5-yl)ethyl)-5,16,20,23-tetraoxo-2,3,4,4a,5,6,7,8,16,17,18,19,20,21,22,23-hexadecahydro-1H-naphtho[1,2-p]pyrazino[2,1-f][1]oxa[4,7,10,14]tetraazacycloheptadecine-18-carboxamide]: the pEC50 was 5.86 and the maximal effect (Emax) was found to be 200%.

As for `COc1cccc(CCNC(=O)[C@@H]2CC(=O)N(C)[C@@H](CC(C)C)C(=O)N3CCNC[C@@H]3C(=O)N[C@H](Cc3ccccc3)COc3ccc4ccccc4c3C(=O)N2)c1` [Example 726, (4aR,7R,18S,22S)-7-benzyl-22-isobutyl-N-(3-methoxyphenethyl)-21-methyl-5,16,20,23-tetraoxo-2,3,4,4a,5,6,7,8,16,17,18,19,20,21,22,23-hexadecahydro-1H-naphtho[1,2-p]pyrazino[2,1-f][1]oxa[4,7,10,14]tetraazacycloheptadecine-18-carboxamide], the pEC50 is 6.20 and the Emax was found to be 234%.

For `Cc1cc(CCNC(=O)[C@@H]2CC(=O)N(C)[C@@H](CC(C)C)C(=O)N3CCNC[C@@H]3C(=O)N[C@H](Cc3ccccc3)COc3cnc4ccccc4c3C(=O)N2)on1` [Example 727, (9S,13S,19aR,22R)-22-benzyl-13-isobutyl-12-methyl-N-(2-(3-methylisoxazol-5-yl)ethyl)-7,11,14,20-tetraoxo-7,8,9,10,11,12,13,14,17,18,19,19a,20,21,22,23-hexadecahydro-16H-pyrazino[2′,1′:6,7][1]oxa[4,7,10,14]tetraazacycloheptadecino[17,16-c]quinoline-9-carboxamide], the pEC50 is 5.30 and the maximum response (Emax) was found to be 138%.

Regarding `COc1cccc(CCNC(=O)[C@@H]2CC(=O)N(C)[C@@H](CC(C)C)C(=O)N3CCN(S(=O)(=O)c4ccccc4)C[C@@H]3C(=O)N[C@H](Cc3ccccc3)COc3ccc4ccccc4c3C(=O)N2)c1` [Example 729, (4aR,7R,18S,22S)-7-benzyl-22-isobutyl-N-(3-methoxyphenethyl)-21-methyl-5,16,20,23-tetraoxo-3-(phenylsulfonyl)-2,3,4,4a,5,6,7,8,16,17,18,19,20,21,22,23-hexadecahydro-1H-naphtho[1,2-p]pyrazino[2,1-f][1]oxa[4,7,10,14]tetraazacycloheptadecine-18-carboxamide], the pEC50 is 7.00 and the Emax is 258%.

For the molecule `COc1cccc(CCNC(=O)[C@@H]2CC(=O)N(C)[C@@H](CC(C)C)C(=O)N3CCN(S(=O)(=O)CCCN4CCOCC4)C[C@@H]3C(=O)N[C@H](Cc3ccccc3)COc3ccc4ccccc4c3C(=O)N2)c1` [Example 730, (4aR,7R,18S,22S)-7-benzyl-22-isobutyl-N-(3-methoxyphenethyl)-21-methyl-3-((3-morpholinopropyl)sulfonyl)-5,16,20,23-tetraoxo-2,3,4,4a,5,6,7,8,16,17,18,19,20,21,22,23-hexadecahydro-1H-naphtho[1,2-p]pyrazino[2,1-f][1]oxa[4,7,10,14]tetraazacycloheptadecine-18-carboxamide], the pEC50 is 6.23 and the Emax came to 248%.

In the case of `COc1cccc(CCNC(=O)[C@@H]2CC(=O)N(C)[C@@H](CC(C)C)C(=O)N3CCN(S(C)(=O)=O)C[C@@H]3C(=O)N[C@H](Cc3ccccc3)COc3ccc4ccccc4c3C(=O)N2)c1` [Example 731, (4aR,7R,18S,22S)-7-benzyl-22-isobutyl-N-(3-methoxyphenethyl)-21-methyl-3-(methylsulfonyl)-5,16,20,23-tetraoxo-2,3,4,4a,5,6,7,8,16,17,18,19,20,21,22,23-hexadecahydro-1H-naphtho[1,2-p]pyrazino[2,1-f][1]oxa[4,7,10,14]tetraazacycloheptadecine-18-carboxamide], the pEC50 was 6.42 and the Emax turned out to be 248%.

With `COc1cccc(CCNC(=O)[C@@H]2CC(=O)N(C)[C@@H](CC(C)C)C(=O)N3CCN(S(=O)(=O)c4cccc(OC(F)(F)F)c4)C[C@@H]3C(=O)N[C@H](Cc3ccccc3)COc3ccc4ccccc4c3C(=O)N2)c1` [Example 732, (4aR,7R,18S,22S)-7-benzyl-22-isobutyl-N-(3-methoxyphenethyl)-21-methyl-5,16,20,23-tetraoxo-3-((3-(trifluoromethoxy)phenyl)sulfonyl)-2,3,4,4a,5,6,7,8,16,17,18,19,20,21,22,23-hexadecahydro-1H-naphtho[1,2-p]pyrazino[2,1-f][1]oxa[4,7,10,14]tetraazacycloheptadecine-18-carboxamide], the pEC50 was 7.19 and the maximal effect (Emax) came to 239%.
